Tests used:
human TASK = conditions: whole cell, voltage ramp from holding potential -80 mV, room temperature; 0.8 mM chloroform, 1 mM halothane, 2 mM isoflurane, 0.6 mM diethyl ether (Figs. 1-3)
Protocol: (§1) As performed herein, COS cells were seeded at a density of 20,000 cells per 35 mm dish 24 hours prior to transfection. Cells were transfected by the DEAE dextran protocol (1 µg DNA per plate). Mouse TREK-1 (GenBank Accession No. U73488), human TASK (GenBank Accession No. AF006823) and mouse TRAAK (GenBank Accession No. AF056492) fragments were amplified by polymerase chain reaction (PCR) and subcloned into the pIRES-CD8 vector. Transfected cells were visualized 48 hours after transfection using the anti-CD8 antibody coated beads method. For whole cell and excised patch experiments, the internal solution was 150 mM KCl, 3 mM MgCl2, 5mM EGTA and 10 mM HEPES at pH 7.2 with KOH and the external medium contained 150 mM NaCl, 5 mM KCL, 3 mM MgCl2, 1 mM CaCl2, 10 mM HEPES at pH 7.4 with NaOH. Cells were continuously superfused with a microperfusion system during the time course of the experiments (0.1 ml/min) performed at room temperature. A RK300 patch clamp amplifier (Biologic, Grenoble, France) was used for whole cell as well as single channel recordings. Ionic currents were monitored and recorded continuously using a DAT recorder (Biologic, Grenoble, France). Subsequently, data were replayed and sampled using pClamp software. Data analysis were performed using clampfit (pClamp) for whole cell recording as well as Biopatch (Biologic) software for single channel recordings. Membrane capacitance was measured during a […] hyperpolarizing step from a holding potential of -80 mV.
(§2) General anesthetics were directly dissolved in saline solutions. All experiments were performed at room temperature (24°C). Solutions were prepared every 3 hours in gas-tight bottles as stock solutions (calculated concentrations of 5 10 mM). Serial dilutions were prepared just prior to the electrophysiological experiment. 2.5 ml of each experimental solution at the desired concentration was placed in a syringe connected to the experimental superfusion system. The electrophysiological measurements were performed within 45 minutes.
(§3) The actual concentrations of anesthetics were subsequently determined by means of a gas chromatography method (HP 6890 equipped with a DB624 column) using FID detection. Sampled (2.5 ml of solution) were collected prior to (t0) and after perfusion (t45) through the experimental setup. Solutions were collected using gas impermeable tubing and stored in sealed glass containers at 4°C for subsequent analysis. Samplings and measurements were performed in duplicate. […] In the dose effect curves, the threshold concentrations were estimated as concentrations producing an increase higher than 10% in current amplitude.

Mouse TREK-1 = conditions: whole cell, voltage ramp from holding potential -80 mV, room temperature; 0.8 mM chloroform, 1 mM halothane, 2 mM isoflurane, 0.6 mM diethyl ether (Figs. 1-3)
Protocol: as §1, §2, §3

mouse TRAAK = test: Whole cell patch clamp of transfected COS cells expressing TRAAK; type: cell-based; conditions: voltage ramp from holding potential -80 mV, room temperature, 0.8 mM chloroform, 1 mM halothane, 2 mM isoflurane, 0.6 mM diethyl ether (Figs. 1-3)
Protocol: (§4) Subsequently, data were replayed and sampled using pClamp software.
General anesthetics were directly dissolved in saline solutions. All experiments were performed at room temperature (24°C). […] The electrophysiological measurements were performed within 45 minutes.
as §3

human TREK-1 channel = test: Whole cell patch clamp of transiently transfected COS cells expressing human TREK-1; type: cell-based
Text: The functional properties of the human TREK-1 channel were studied on the basis of transfected COS cells temporarily expressing the protein. Like the murine channel, the human channel is selective for potassium and is activated by cis-unsaturated fatty acids, volatile anesthetics and by stretching of the plasma membrane. The currents are recordings in the whole-cell configuration of the patch-clamp technique (imposed potential gradient from -130 to +100 mV). The inverse potential of the currents follow the equilibrium potential of potassium when the extracellular concentration of potassium ions climbs from 5 to 155 mM. […] When a pressure of -66 mmHg is applied on the membrane, the TREK-1 currents are activated in a reversible manner.
as §4

[1] = test system: COS cells expressing TREK-1; conditions: 0.8 mM chloroform; not in mock-transfected cells, n = 5
Protocol: As performed herein, COS cells were seeded at a density of 20,000 cells per 35 mm dish 24 hours prior to transfection. Cells were transfected by the DEAE dextran protocol (1 µg DNA per plate). […] Transfected cells were visualized 48 hours after transfection using the anti-CD8 antibody coated beads method. For whole cell and excised patch experiments, the internal solution was 150 mM KCl, 3 mM MgCl2, 5mM EGTA and 10 mM HEPES at pH 7.2 with KOH and the external medium contained 150 mM NaCl, 5 mM KCL, 3 mM MgCl2, 1 mM CaCl2, 10 mM HEPES at pH 7.4 with NaOH. Cells were continuously superfused with a microperfusion system during the time course of the experiments (0.1 ml/min) performed at room temperature. A RK300 patch clamp amplifier (Biologic, Grenoble, France) was used for whole cell as well as single channel recordings. Ionic currents were monitored and recorded continuously using a DAT recorder (Biologic, Grenoble, France). Subsequently, data were replayed and sampled using pClamp software. […] Membrane capacitance was measured during a 10 V hyperpolarizing step from a holding potential of -80 mV. […]
General anesthetics were directly dissolved in saline solutions. […] Solutions were prepared every 3 hours in gas-tight bottles as stock solutions (calculated concentrations of 5 10 mM). […]

| Structure (SMILES) | effect on TASK K+ current (human TASK) | effect on TREK-1 K+ current (Mouse TREK-1) | effect on TRAAK K+ current (mouse TRAAK) | effect on human TREK-1 currents (human TREK-1 channel; arachidonic acid 10 µM in the bath) | effect on membrane potential of COS cells expressing TREK-1 [1] | effect on human TREK-1 currents (human TREK-1 channel; concentrations employed in general anesthesia) |
| --- | --- | --- | --- | --- | --- | --- |
| CCOCC [Diethyl ether, diethyl ether] | decreased | opened | did not affect | – | – | – |
| FC(F)OC(Cl)C(F)(F)F (stereo not drawn) [Isoflurane, isoflurane] | activated | activated | without altering | – | – | – |
| CCCCC/C=C\C/C=C\C/C=C\C/C=C\CCCC(=O)O [arachidonic acid] | – | – | – | induced activation | – | – |
| ClC(Cl)Cl [chloroform] | slightly depressed | strongly and reversibly activated | did not effect | – | reversibly and reproducibly hyperpolarized | – |
| FC(F)(F)C(Cl)Br (stereo not drawn) [halothane] | opened | opened | not TRAAK, were opened | – | – | induced activation |

Reference: patent EP1144624B1, “HUMAN AND MOUSE TREK-1 POTASSIUM CHANNEL PROTEIN AND THEIR USE” (CENTRE NATIONAL DE LA RECHERCHE SCIENTIFIQUE, priority 1999, dated 2000)
